According to patent US4618622A, “Sulfonates of hydroxycoumarins” (priority 1982, dated 1986):
Read-outs that look alike come from different tables or passages of the source.

Experiments:
[1] = molecular target: T1, Monoaminoxidase A (Rattus norvegicus, UniProt P21396); assay: biochemical; conditions: monoaminoxidase A, rat brain homogenate, 14C-tryptamine 0.4 μmol/liter, 37° C., 20 minutes; read-out: Monoaminoxidase inhibition IC50
T1 sequence (P21396 1-526): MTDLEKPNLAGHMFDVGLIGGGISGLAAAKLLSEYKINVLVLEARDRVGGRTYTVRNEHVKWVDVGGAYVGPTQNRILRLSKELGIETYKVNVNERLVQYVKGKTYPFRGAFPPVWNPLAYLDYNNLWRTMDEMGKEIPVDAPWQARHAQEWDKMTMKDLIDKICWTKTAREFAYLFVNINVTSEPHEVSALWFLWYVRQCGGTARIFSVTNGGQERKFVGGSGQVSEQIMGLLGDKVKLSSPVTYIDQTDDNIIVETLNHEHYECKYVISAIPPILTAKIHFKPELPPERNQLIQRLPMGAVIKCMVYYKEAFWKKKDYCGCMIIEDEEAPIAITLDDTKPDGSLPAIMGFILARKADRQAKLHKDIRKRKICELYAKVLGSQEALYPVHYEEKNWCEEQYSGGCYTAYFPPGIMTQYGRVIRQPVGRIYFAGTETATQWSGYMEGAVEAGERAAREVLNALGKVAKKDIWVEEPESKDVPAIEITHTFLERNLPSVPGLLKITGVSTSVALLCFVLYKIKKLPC
Procedure: Monoaminoxidase A is determined in dilute rat brain homogenate to which
1. various concentrations of the test substances and
2. ^14 C-tryptamine in a concentration of 0.4 μmol/liter are added. This mixture is incubated at 37° C. for 20 minutes, after which the reaction is terminated by means of aqueous 0.1N HCl, and the products are extracted with toluene scintillator (PPO+POPOP in toluene) and then determined. The blank value is determined in similar mixtures for an incubation time of t=0 minutes.
The mean inhibitory concentration (IC50) is calculated from the inhibitory values determined, in comparison with the control, at the various inhibitor concentrations, by means of a linear regression after logit-log transformation.

[2] = test system: reserpine-induced hypothermia; assay: Antidepressant action: inhibition of reserpine-induced hypothermia (reserpine test); type: in vivo, mouse (male, Swiss strain); conditions: read-out: Antidepressant action (mouse) ED50
Procedure: The test substances are administered orally, 60 minutes before the reserpine.

[3] = oral administration, 60 minutes before reserpine 2.15 mg/kg s.c., mouse, temperature 2 hours after

SMILES	IC50 [1] [nM]	ED50 [2, 3] [mg/kg]	ED50 ([2]; Mus musculus, po, 2 h) [mg/kg]
CC(C)S(=O)(=O)Oc1ccc2ccc(=O)oc2c1 [Example 45, 7-Hydroxycoumarin isopropanesulfonate]	160	–	–
CCc1cc(=O)oc2cc(OS(=O)(=O)c3ccc(Cl)cc3)ccc12 [Example 31, 4-Ethyl-7-hydroxycoumarin 4'-chlorobenzenesulfonate]	30	–	–
Cc1cc(=O)oc2cc(OS(=O)(=O)c3ccccc3)ccc12 [Example 41, 7-Hydroxy-4-methylcoumarin benzenesulfonate]	–	29.7	–
Cc1c(C)c2ccc(OS(=O)(=O)c3cc(Cl)ccc3Cl)cc2oc1=O [Example 13, 7-Hydroxy-3,4-dimethylcoumarin 2',5'-dichlorobenzenesulfonate]	27	–	–
CCCS(=O)(=O)Oc1ccc2c(C)c(C)c(=O)oc2c1 [Example 22, 7-Hydroxy-3,4-dimethylcoumarin propanesulfonate]	9.6	1.4	–
Cc1cc2ccc(OS(=O)(=O)c3ccc(Br)cc3)cc2oc1=O [Example 19, 7-Hydroxy-3-methylcoumarin 4'-bromobenzenesulfonate]	9.8	–	–
Cc1c(C)c2ccc(OS(=O)(=O)CCl)cc2oc1=O [Example 56, 7-Hydroxy-3,4-dimethylcoumarin chloromethanesulfonate]	–	3.4	–
Cc1c(Cl)c(=O)oc2cc(OS(=O)(=O)C(C)C)ccc12 [Example 60, 7-Hydroxy-3-chloro-4-methylcoumarin isopropanesulfonate]	14	–	–
Cc1c(C)c2ccc(OS(C)(=O)=O)cc2oc1=O [Example 2, 7-Hydroxy-3,4-dimethylcoumarin methanesulfonate]	–	5.9	–
Cc1c(C)c2ccc(OS(=O)(=O)c3ccc(Br)cc3)cc2oc1=O [Example 11, 7-Hydroxy-3,4-dimethylcoumarin 4'-bromobenzenesulfonate]	–	2.5	–
CCCCS(=O)(=O)Oc1ccc2c(C)c(C)c(=O)oc2c1 [Example 26, 7-Hydroxy-3,4-dimethylcoumarin butanesulfonate]	7.3	1.8	–
Cc1c(C)c2ccc(OS(=O)(=O)CCCCl)cc2oc1=O [Example 55, 7-Hydroxy-3,4-dimethylcoumarin 3'-chloropropanesulfonate]	–	1.3	–
CC(=O)Nc1ccc(S(=O)(=O)Oc2ccc3c(C)c(C)c(=O)oc3c2)cc1 [Example 15, 7-Hydroxy-3,4-dimethylcoumarin 4'-acetylaminobenzenesulfonate]	620	–	–
CCCCCS(=O)(=O)Oc1ccc2c(C)c(C)c(=O)oc2c1 [Example 38, 7-Hydroxy-3,4-dimethylcoumarin pentanesulfonate]	–	1.4	–
Cc1cc2ccc(OS(=O)(=O)c3ccccc3)cc2oc1=O [Example 20, 7-Hydroxy-3-methylcoumarin benzenesulfonate]	67	–	–
Cc1c(C)c2ccc(OS(=O)(=O)c3cccc4ccccc34)cc2oc1=O [Example 3, 7-Hydroxy-3,4-dimethylcoumarin naphthalene-1'-sulfonate]	76	–	–
CCOC(=O)c1cc2ccc(OS(=O)(=O)c3ccc([N+](=O)[O-])cc3)cc2oc1=O [Example 51, 7-Hydroxy-3-carboethoxycoumarin 4'-nitrobenzenesulfonate]	540	–	–
CCc1c(C)c2ccc(OS(=O)(=O)c3ccc(Cl)cc3)cc2oc1=O [Example 34, 3-Ethyl-7-hydroxy-4-methylcoumarin 4'-chlorobenzenesulfonate]	23	–	–
Cc1cc2ccc(OS(=O)(=O)c3ccc(Cl)cc3)cc2oc1=O [Example 30, 7-Hydroxy-3-methylcoumarin 4'-chlorobenzenesulfonate]	6.3	9	–
O=c1oc2cc(OS(=O)(=O)c3ccc(Cl)cc3)ccc2c2c1CCCC2 [Example 29, 7-Hydroxy-3,4-tetramethylenecoumarin 4'-chlorobenzenesulfonate]	110	–	–
COC(=O)Cc1c(C)c2ccc(OS(=O)(=O)c3ccc(Br)cc3)cc2oc1=O [Example 48, 7-Hydroxy-3-carbomethoxymethyl-4-methylcoumarin 4'-bromobenzenesulfonate]	22	–	–
Cc1cc(=O)oc2cc(OS(=O)(=O)c3ccc(Cl)cc3)ccc12 [Example 40, 7-Hydroxy-4-methylcoumarin 4'-chlorobenzenesulfonate]	6.5	–	8.7

SMILES	IC50 [1] [nM]	ED50 [2, 3] [mg/kg]	ED50 ([2]; Mus musculus, po, 2 h) [mg/kg]
O=c1oc2cc(OS(=O)(=O)c3ccccc3)ccc2c2c1CCCC2 [Example 21, 7-Hydroxy-3,4-tetramethylenecoumarin benzenesulfonate]	550	–	–
O=c1oc2cc(OS(=O)(=O)c3ccc(Br)cc3)ccc2c2c1CCCC2 [Example 28, 7-Hydroxy-3,4-tetramethylenecoumarin 4'-bromobenzenesulfonate]	290	–	–
Cc1c(C)c2ccc(OS(=O)(=O)C(C)C)cc2oc1=O [Example 23, 7-Hydroxy-3,4-dimethylcoumarin isopropanesulfonate]	3.7	3.1	–
CCOC(=O)c1cc2ccc(OS(=O)(=O)c3ccc(Cl)cc3)cc2oc1=O [Example 50, 7-Hydroxy-3-carboethoxycoumarin 4'-chlorobenzenesulfonate]	540	–	–
Cc1c(C)c2ccc(OS(=O)(=O)c3ccc(Cl)cc3)cc2oc1=O [Example 9, 7-Hydroxy-3,4-dimethylcoumarin 4'-chlorobenzenesulfonate]	–	6.1	–
CNS(=O)(=O)Oc1ccc2c(C)c(C)c(=O)oc2c1 [Example 43, 7-Hydroxy-3,4-dimethylcoumarin N-methylamidosulfonate]	–	1.9	–
Cc1cc(=O)oc2cc(OS(C)(=O)=O)ccc12 [Example 42, 7-Hydroxy-4-methylcoumarin methanesulfonate]	130	19.6	–
CCS(=O)(=O)Oc1ccc2c(C)c(C)c(=O)oc2c1 [Example 39, 7-Hydroxy-3,4-dimethylcoumarin ethanesulfonate]	–	1.7	–
Cc1c(C)c2ccc(OS(=O)(=O)c3ccc(F)cc3)cc2oc1=O [Example 14, 7-Hydroxy-3,4-dimethylcoumarin 4'-fluorobenzenesulfonate]	–	1.4	–
Cc1c(C)c2ccc(OS(=O)(=O)c3cccc([N+](=O)[O-])c3)cc2oc1=O [Example 57, 7-Hydroxy-3,4-dimethylcoumarin 3'-nitrobenzenesulfonate]	–	1.5	–
Cc1c(C)c2ccc(OS(=O)(=O)C(F)(F)F)cc2oc1=O [Example 24, 7-Hydroxy-3,4-dimethylcoumarin trifluoromethanesulfonate]	75	3.7	–
CCCCCCCCS(=O)(=O)Oc1ccc2c(C)c(C)c(=O)oc2c1 [Example 27, 7-Hydroxy-3,4-dimethylcoumarin octanesulfonate]	34	–	–
Cc1c(C)c2ccc(OS(=O)(=O)c3ccc4ccccc4c3)cc2oc1=O [Example 4, 7-Hydroxy-3,4-dimethylcoumarin naphthalene-2'-sulfonate]	–	4	–
Cc1c(C)c2ccc(OS(=O)(=O)Cc3ccccc3)cc2oc1=O [Example 25, 7-Hydroxy-3,4-dimethylcoumarin phenylmethanesulfonate]	77	–	–
Cc1c(C)c2ccc(OS(=O)(=O)c3ccccc3[N+](=O)[O-])cc2oc1=O [Example 6, 7-Hydroxy-3,4-dimethylcoumarin 2'-nitrobenzenesulfonate]	110	–	–
Cc1c(C)c2ccc(OS(=O)(=O)c3ccc(C#N)cc3)cc2oc1=O [Example 18, 7-Hydroxy-3,4-dimethylcoumarin 4'-cyanobenzenesulfonate]	–	3.6	–
Cc1c(C)c2ccc(OS(=O)(=O)CC(C)C)cc2oc1=O [Example 52, 7-Hydroxy-3,4-dimethylcoumarin 2'-methylpropanesulfonate]	5.7	0.3	–
CCc1cc(=O)oc2cc(OS(=O)(=O)c3ccccc3)ccc12 [Example 32, 4-Ethyl-7-hydroxycoumarin benzenesulfonate]	120	–	–
Cc1cc(C)c(S(=O)(=O)Oc2ccc3c(C)c(C)c(=O)oc3c2)c(C)c1 [Example 12, 7-Hydroxy-3,4-dimethylcoumarin 2',4',6'-trimethylbenzenesulfonate]	51	–	–
Cc1c(C)c2ccc(OS(=O)(=O)c3ccc(OC(F)(F)C(F)F)cc3)cc2oc1=O [Example 8, 7-Hydroxy-3,4-dimethylcoumarin 4'-(α,α,β,β-tetrafluoroethoxy)-benzenesulfonate]	160	–	–
CCCc1c(C)c2ccc(OS(=O)(=O)c3ccc(Cl)cc3)cc2oc1=O [Example 37, 7-Hydroxy-4-methyl-3-propylcoumarin 4'-chlorobenzenesulfonate]	67	–	–
